Test results reported in patent publication USRE40198E1, “Method and device for electrochemical immunoassay of multiple analytes” (Roche Diagnostics Operations, Inc., priority 1998, dated 2008).

What was measured:
glucose oxidase = glucose oxidase (Aspergillus niger, UniProt P13006); settings: with glucose oxidase; cited from earlier work
Zymed rabbit antibodies = experiment: Inhibition of Ao conjugate current by antibody; format: binding
[1] = Stability of mediator labels (analytical HPLC, % inhibition values over time); format: physicochemical; settings: for Stability in solution: stored as solution
Method: (§1) Samplers frozen at−20° C. appear to be stable.

HbAo antibody = experiment: Reversal of antibody inhibition with AoHB-peptide #1; format: binding
Sheep B<HbAo> antibody = experiment: Inhibition of Ao conjugate current by antibody; format: binding
[2] = system: hemoglobin Alc antibodies (PAB IS, PAB DE, MAB); experiment: Reversal of antibody inhibition with BSA-Alc polyhaptan; format: binding
From the text: Reversal curves were then generated using a series of dilutions ofBAS-Alc-polyhaptan with a−1:1 Alc:BAS. The BAS-Alc acts as our sample and binds to the antibody.

HbAlc antibodies = experiment: Inhibition curves of mediator labels, antibody not given; format: binding
Method: (§2) Polyclonal DE (ion-exchange) purified sheep antibody is used in the TinaQuant HbAlc assay. IS (immunosorbent) antibody is prepared using standard IS purification methodology. Samples of a monoclonal antibody were also obtained for evaluation. Inhibition curves were performed in solution with all mixing occurring in microcentrifuge tubes. Inhibition curves with the three hemoglobin Alc antibodies (PAB IS, PAB DE, and MAB) were generated by fixing OS-DSG-Alc at 5μM and varying the antibody concentration. […] From the inhibition curves we were able to select reasonable concentrations of antibody for maximum reversal with Alc samples.
as §1

[3] = system: hemoglobin Alc antibody PAB IS (polyclonal, immunosorbent purified); experiment: Inhibition of osmium mediator-peptide conjugate current by antibody (enzyme amplified amperometry, palladium electrodes); format: binding, sheep; settings: for Inhibition with Antibody, PAB IS: maximum inhibition
From the text: 3. Antibodies for the analytes (HbAlc and HbAO) which react specifically with the N-terminal peptides which have been incorporated into the conjugate are provided by standard methods for producing polyclonal antibodies. In this case, sheep were immunized with carrier proteins to which were conjugated the synthetic peptide sequences for HbAlc and HbA0. Following the appropriate immunization schedule, the sheep were bled, and the antibody isolated from the blood via ion exchange chromatography, followed by immunosorbent purification on a column of the same N-terminal peptide with a different linker.
(§3) 4. Appropriate stoichiometry of the reaction was determined for the two reactions independently by methods standard for immunoassay development. A solution containing a fixed amount of labeled conjugate was mixed with a solution with varying amounts of antibody, and, following an appropriate incubation period, the amount of free conjugate remaining was measured on the IDA electrode using the procedure described above.
as §2
(§4) While these feasibility studies for a HbAlc immunoassay used an enzyme mediated amplification method (Glucdor/PQQ/glucose was used to regenerate reduced mediator after oxidation at the electrode surface providing a higher diffusion controlled current is given by the cottrell equation), they are considered to be indicative of results attainable with the use of IDA electrodes with bipotentiostatic control is most preferred for measuring mediator labeled conjugates in accordance with this invention.

[4] = system: hemoglobin Alc antibody PAB DE (polyclonal, ion-exchange purified); experiment: as above; format: binding, sheep; settings: for Inhibition with Antibody, PAB DE: maximum inhibition
Method: as §3, §2, §4

[5] = system: hemoglobin Alc antibody MAB (monoclonal); experiment: as above; format: binding; settings: for Inhibition with Antibody, MAB: maximum inhibition
Method: as §3, §2, §4

glucose oxidase, sequence (P13006 17-605, species assumed): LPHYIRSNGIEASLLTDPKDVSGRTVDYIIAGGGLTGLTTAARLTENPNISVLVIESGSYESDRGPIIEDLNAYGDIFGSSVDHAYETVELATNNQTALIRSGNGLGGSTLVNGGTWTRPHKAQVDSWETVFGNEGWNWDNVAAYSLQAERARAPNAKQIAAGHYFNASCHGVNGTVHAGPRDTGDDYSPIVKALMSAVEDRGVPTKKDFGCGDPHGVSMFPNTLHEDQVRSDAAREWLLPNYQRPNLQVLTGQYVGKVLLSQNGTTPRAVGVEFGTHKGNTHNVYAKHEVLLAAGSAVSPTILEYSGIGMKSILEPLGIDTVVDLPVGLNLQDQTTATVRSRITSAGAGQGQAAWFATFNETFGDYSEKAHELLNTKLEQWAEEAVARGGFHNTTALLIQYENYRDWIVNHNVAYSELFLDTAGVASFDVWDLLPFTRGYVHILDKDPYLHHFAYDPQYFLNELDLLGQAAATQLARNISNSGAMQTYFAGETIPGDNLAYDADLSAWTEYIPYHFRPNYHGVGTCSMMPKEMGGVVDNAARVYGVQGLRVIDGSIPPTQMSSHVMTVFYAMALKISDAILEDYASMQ

| Compound | Stability in solution [1] | Reversal with BSA-Alc polyhaptan [2] | Max inhibition from inhibition curve (HbAlc antibodies) | Inhibition with Antibody, PAB IS [3] | Inhibition with Antibody, PAB DE [4] | Inhibition with Antibody, MAB [5] | other results |
| --- | --- | --- | --- | --- | --- | --- | --- |
| Bis(2,2′-bipyridyl) imidazolyl chloroosmium [Os mediator] |  |  |  |  |  |  | Mediation kinetics relative to ferricyanide (glucose oxidase): about 500 times faster |
| CC(C)CC(NC(=O)C(Cc1cnc[nH]1)NC(=O)C(N)C(C)C)C(=O)NC(C(=O)NC(CCCCNC(=O)CCCCCN1C(=O)CC(SCC(=O)NCCc2c[n+]([Os]34([Cl])([n+]5ccccc5-c5cccc[n+]53)[n+]3ccccc3-c3cccc[n+]34)c[nH]2)C1=O)C(=O)O)C(C)O (centres unmarked) [Os-SATA-Ao] | unstable in solution. Conjugate |  |  |  |  |  | Inhibition with Antibody, Zymed rabbit antibodies (Zymed rabbit antibodies): No; Reversal with AoHB-peptide #1 (HbAo antibody): No with AoHB-; Inhibition with Antibody, Sheep B<HbAo> (Sheep B<HbAo> antibody): ≤ 84% |
| CC(C)CC(NC(=O)C(Cc1cnc[nH]1)NC(=O)C(NCC1(O)OCC(O)C(O)C1O)C(C)C)C(=O)NC(C(=O)NC(CCCCNC(=O)CCCCCN1C(=O)CC(SCC(=O)NCCc2c[n+]([Os]34([Cl])([n+]5ccccc5-c5cccc[n+]53)[n+]3ccccc3-c3cccc[n+]34)c[nH]2)C1=O)C(=O)O)C(C)O (centres unmarked) [Os-SATA-Alc] | Stability similar to SMCC. | Yes with BSA-Alc | 44% | PAB IS (≦44%) |  |  |  |
| CC(C)CC(NC(=O)C(Cc1cnc[nH]1)NC(=O)C(NCC1(O)OCC(O)C(O)C1O)C(C)C)C(=O)NC(C(=O)NC(CCCCNC(=O)CCCC(=O)NCCc1c[n+]([Os]23([Cl])([n+]4ccccc4-c4cccc[n+]42)[n+]2ccccc2-c2cccc[n+]23)c[nH]1)C(=O)O)C(C)O (centres unmarked) [Os-DSG-Alc] |  | Yes with BSA-Alc |  | PAB IS (≦91%) | PAB DE (<87%) | MAB (<78%) | Stability lyophilized and frozen ([1]; lyophilized form and frozen in solution at -20 C (40 and 80 uM)): stable; Amount of PAB DE antibody needed to get close to maximum inhibition, relative to PAB IS and MAB ([4]; conjugate fixed at 5 μM): more than 3 times; Antibody concentration at which maximum change of inhibition is reached, MAB ([5]; conjugate fixed at 5 μM): ~5 µM; Antibody concentration at which maximum change of inhibition is reached, PAB IS ([3]; conjugate fixed at 5 μM): ~5 µM |
| CC(C)CC(NC(=O)C(Cc1cnc[nH]1)NC(=O)C(NCC1(O)OCC(O)C(O)C1O)C(C)C)C(=O)NC(C(=O)NC(CSC1CC(=O)N(CC2CCC(C(=O)NCCc3c[n+]([Os]45([Cl])([n+]6ccccc6-c6cccc[n+]64)[n+]4ccccc4-c4cccc[n+]45)c[nH]3)CC2)C1=O)C(=O)O)C(C)O (centres unmarked) [Os-SMCC-Alc] | Degrades in solution. | Yes with BSA-Alc | 97% | PAB IS (≦92%) | PAB DE (≦97%) | MAB (≦50%) |  |
